This note sets out measurements from US20260000676A1, “CHROMAN DERIVATIVES AS ESTROGEN RECEPTOR DEGRADERS” (THE REGENTS OF THE UNIVERSITY OF MICHIGAN, priority 2022, published 2026).

Usually IC50 stands for the point on the concentration scale where inhibition reaches its midpoint. In general, DC50 refers to the midpoint of the concentration-degradation curve. Read a low DC50 as a more potent degrader. By Dmax is commonly meant the greatest extent of degradation seen. A high value points to a fuller loss of target.

For experiment [1], the target named is CRBN/DDB1 (Homo sapiens (Human), UniProt Q96SW2). The experiment in a line: HTRF binding assay to CRBN/DDB1. To be noted: read-out: CRBN HTRF IC50. How it is done:
The binding potency was determined using HTRF assay technology (Perkin Elmer). Compounds were serially diluted in DMSO and 0.2 μL volume was transferred to white 384-well plate.
(In general: TR-FRET usually uses a lanthanide donor and a delayed reading to cut background.)

For experiment [2], the target named is T1, ER (Homo sapiens (Human), UniProt P03372). The experiment in a line: In-cell western (ICW) ER degradation assay in MCF-7 cells. To be noted: MCF7, 16 hrs; for DC50: ER degradation; for MCF7 Dmax %: maximal ER degradation; for Dmax: MCF7, maximal ER degradation. Format: cell-based.
T1 sequence (P03372 whole entry): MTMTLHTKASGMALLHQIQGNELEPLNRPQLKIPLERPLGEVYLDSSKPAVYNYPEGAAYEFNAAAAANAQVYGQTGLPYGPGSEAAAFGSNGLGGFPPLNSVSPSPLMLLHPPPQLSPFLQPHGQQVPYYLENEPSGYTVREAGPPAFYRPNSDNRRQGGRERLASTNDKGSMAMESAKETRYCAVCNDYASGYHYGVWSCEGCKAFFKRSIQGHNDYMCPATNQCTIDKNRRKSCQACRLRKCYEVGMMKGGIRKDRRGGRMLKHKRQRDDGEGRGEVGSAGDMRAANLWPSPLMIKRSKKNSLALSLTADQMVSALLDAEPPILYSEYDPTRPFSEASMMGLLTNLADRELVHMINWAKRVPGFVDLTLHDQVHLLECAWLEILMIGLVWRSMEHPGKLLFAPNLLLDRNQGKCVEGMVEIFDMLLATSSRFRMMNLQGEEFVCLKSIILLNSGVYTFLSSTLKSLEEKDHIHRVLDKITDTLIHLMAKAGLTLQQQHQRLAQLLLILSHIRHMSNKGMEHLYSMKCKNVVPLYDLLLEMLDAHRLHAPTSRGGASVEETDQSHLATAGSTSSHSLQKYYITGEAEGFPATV
For experiment [3], the target named is T1, ER. The experiment in a line: In-cell western (ICW) ER degradation assay in T47D cells. In kind it is cell-based. The following applies: 16 hrs; for DC50: ER degradation.

Counter-ions that a name gives are not always drawn. Bounds are passed on as bounds.

Sequence of CRBN/DDB1 (Q96SW2 whole entry): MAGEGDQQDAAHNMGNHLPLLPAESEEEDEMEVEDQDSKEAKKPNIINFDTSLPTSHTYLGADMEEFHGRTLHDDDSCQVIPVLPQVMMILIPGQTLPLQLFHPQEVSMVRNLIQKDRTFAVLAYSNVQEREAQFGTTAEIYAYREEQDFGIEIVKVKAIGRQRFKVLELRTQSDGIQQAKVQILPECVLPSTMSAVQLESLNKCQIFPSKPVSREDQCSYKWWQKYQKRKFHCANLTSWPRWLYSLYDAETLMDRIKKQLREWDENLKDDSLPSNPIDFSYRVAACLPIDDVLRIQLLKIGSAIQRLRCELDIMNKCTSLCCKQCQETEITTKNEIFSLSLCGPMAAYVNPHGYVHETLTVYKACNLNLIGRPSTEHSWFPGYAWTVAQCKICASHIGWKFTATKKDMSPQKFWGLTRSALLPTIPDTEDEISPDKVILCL
Sequence of CRBN/DDB1 (Q16531 whole entry partner): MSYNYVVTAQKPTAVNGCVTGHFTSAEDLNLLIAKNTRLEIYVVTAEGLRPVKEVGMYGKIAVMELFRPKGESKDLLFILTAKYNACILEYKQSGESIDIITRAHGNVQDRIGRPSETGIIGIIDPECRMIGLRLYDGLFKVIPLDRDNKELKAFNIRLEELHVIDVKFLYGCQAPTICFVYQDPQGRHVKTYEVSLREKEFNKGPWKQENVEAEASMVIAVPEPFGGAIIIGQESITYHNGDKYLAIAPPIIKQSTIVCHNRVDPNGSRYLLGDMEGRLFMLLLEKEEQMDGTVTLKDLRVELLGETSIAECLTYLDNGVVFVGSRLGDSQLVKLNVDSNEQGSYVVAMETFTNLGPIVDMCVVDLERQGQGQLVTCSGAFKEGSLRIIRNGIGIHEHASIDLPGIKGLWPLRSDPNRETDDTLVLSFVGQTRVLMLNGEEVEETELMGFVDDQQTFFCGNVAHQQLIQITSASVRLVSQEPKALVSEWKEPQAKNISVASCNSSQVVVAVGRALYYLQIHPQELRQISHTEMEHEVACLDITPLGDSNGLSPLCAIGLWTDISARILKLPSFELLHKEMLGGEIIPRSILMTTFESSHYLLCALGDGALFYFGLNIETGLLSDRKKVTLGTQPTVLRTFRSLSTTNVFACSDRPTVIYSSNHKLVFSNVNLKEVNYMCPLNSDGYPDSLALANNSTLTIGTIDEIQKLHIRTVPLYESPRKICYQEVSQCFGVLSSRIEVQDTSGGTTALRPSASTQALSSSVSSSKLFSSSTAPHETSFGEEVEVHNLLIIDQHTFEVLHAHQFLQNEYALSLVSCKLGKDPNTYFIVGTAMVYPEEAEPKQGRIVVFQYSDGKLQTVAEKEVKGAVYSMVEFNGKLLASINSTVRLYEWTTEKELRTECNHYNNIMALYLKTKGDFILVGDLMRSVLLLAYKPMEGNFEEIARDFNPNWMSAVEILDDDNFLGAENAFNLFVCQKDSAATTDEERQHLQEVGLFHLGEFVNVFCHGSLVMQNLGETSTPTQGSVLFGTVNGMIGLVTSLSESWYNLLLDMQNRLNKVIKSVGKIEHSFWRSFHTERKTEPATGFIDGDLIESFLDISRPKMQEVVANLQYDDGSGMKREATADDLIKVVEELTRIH

As for `O=C1CC[C@H](N2Cc3c(ccc4c3OC[C@H]3CN(CC5CC6(CCN(c7ccc([C@@H]8c9ccc(O)cc9OC[C@@H]8c8ccccc8)cc7)CC6)C5)CCN43)C2=O)C(=O)N1` (single isomer, unassigned) [Compound A90], in experiment [1], the IC50 is above 5000 nM. Also, in experiment [2], the half-maximal degradation concentration (DC50) lay in the range of 1 to 10 nM; the “MCF7 Dmax %” value was “B (“B”: >50% and <75%)”. Moreover, the 50% degradation concentration (DC50) in experiment [3] is below 1 nM. Further, the greatest degradation seen (Dmax) in experiment [3] (maximal ER degradation) was 50 to 75%.
In the case of `O=C1CCC(NC(=O)c2ccc(N3CCC(CN4CCN(c5ccc([C@H]6c7ccc(O)cc7OC[C@H]6c6ccccc6)cc5)CC4)CC3)cn2)C(=O)N1` (single isomer, unassigned) [Compound A128], in experiment [1], the IC50 was above 5000 nM. Besides, in experiment [2], the DC50 was below 1 nM; the “MCF7 Dmax %” value was “B (“B”: >50% and <75%)”. The DC50 in experiment [3] was below 1 nM. The Dmax in experiment [3] (maximal ER degradation) was in the range of 50 to 75%.
For the compound `O=C1CCC(N2Cc3cc4c(cc3C2=O)OC[C@@H]2CN(CC3CCN(c5ccc([C@@H]6c7ccc(O)cc7OC[C@@H]6c6ccccc6)cn5)CC3)CCN42)C(=O)N1` (single isomer, unassigned) [Compound A70], the IC50 in experiment [1] lay in the range of 50 to 500 nM. Moreover, the DC50 in experiment [2] is above 100 nM; in experiment [3], 1 to 10 nM.
Take `COc1cc(N2CCC(CN3CCC4(CC3)COc3c4ccc4c3CN(C3CCC(=O)NC3=O)C4=O)CC2)ccc1[C@H]1c2ccc(O)cc2OC[C@H]1c1ccccc1` (stereo partly drawn) [Compound A135, 3-(1′-((1-(4-((3R,4S)-7-hydroxy-3-phenylchroman-4-yl)-3-methoxyphenyl)piperidin-4-yl)methyl)-6-oxo-6,8-dihydro-2H,7H-spiro[furo[2,3-e]isoindole-3,4′-piperidin]-7-yl)piperidine-2,6-dione]: the IC50 in experiment [1] is below 50 nM. Besides, the DC50 in experiment [2] and in experiment [3] was below 1 nM each time. The Dmax in experiment [2] and in experiment [3] (maximal ER degradation) was 25 to 50% throughout.
For the compound `O=C1CC[C@@H](Nc2ccc(C3CCN(C[C@@H]4COC5(CCN(c6ccc([C@@H]7c8ccc(O)cc8OC[C@@H]7c7ccccc7)cc6)CC5)C4)CC3)c(F)c2)C(=O)N1` (single isomer, unassigned) [Compound A165], the IC50 in experiment [1] is 50 to 500 nM. In addition, the DC50 was 0.31 nM in experiment [2] (given as number) and below 1 nM in experiment [3]. In addition, the maximal degradation (Dmax) in experiment [2] lay in the range of 25 to 50%; in experiment [3] (maximal ER degradation), 50 to 75%.
`O=C1CC[C@@H](N2Cc3c(ccc4c3OC[C@@H]3CN(C[C@@H]5COC6(CCN(c7ccc([C@H]8c9ccc(O)cc9OC[C@H]8c8ccccc8)cc7F)CC6)C5)CCN43)C2=O)C(=O)N1` [Compound A155, (R)-3-((S)-7-(((R)-8-(2-fluoro-4-((3R,4S)-7-hydroxy-3-phenylchroman-4-yl)phenyl)-1-oxa-8-azaspiro[4.5]decan-3-yl)methyl)-1-oxo-1,3,5,5a,6,7,8,9-octahydro-2H-pyrazino[1′,2′:4,5][1,4]oxazino[2,3-e]isoindol-2-yl)piperidine-2,6-dione]: in experiment [1], the IC50 was below 50 nM. Also, the results for the 50% degradation concentration (DC50) in experiment [2] and in experiment [3] were above 100 nM and 1 to 10 nM, respectively. In addition, the Dmax in experiment [2] was below 25%; in experiment [3] (maximal ER degradation), 25 to 50%.
For `O=C1CCC(Nc2ccc(C34CCN(CC5COC6(CCN(c7ccc([C@@H]8c9ccc(O)cc9OC[C@@H]8c8ccccc8)cc7F)CC6)C5)CC3C4(F)F)cc2)C(=O)N1` (stereo partly drawn) [Compound A159, 3-((4-(7,7-difluoro-3-(((R)-8-(2-fluoro-4-((3S,4R)-7-hydroxy-3-phenylchroman-4-yl)phenyl)-1-oxa-8-azaspiro[4.5]decan-3-yl)methyl)-3-azabicyclo[4.1.0]heptan-6-yl)phenyl)amino)piperidine-2,6-dione], in experiment [1], the 50% inhibitory concentration (IC50) was 500 to 5000 nM. For the same compound, the 50% degradation concentration (DC50) in experiment [2] and in experiment [3] was 1 to 10 nM in each case. The figures for the Dmax in experiment [2] and in experiment [3] (maximal ER degradation) were 25 to 50% and 50 to 75%, respectively.
Regarding `O=C1CCN(c2ccc(N3CCC4(CC3)CC(CN3CCN(c5ccc([C@@H]6c7ccc(O)cc7OC[C@@H]6c6ccccc6)cc5)CC3)C4)cc2)C(=O)N1` [Compound A112, 1-(4-(2-((4-(4-((3S,4R)-7-hydroxy-3-phenylchroman-4-yl)phenyl)piperazin-1-yl)methyl)-7-azaspiro[3.5]nonan-7-yl)phenyl)dihydropyrimidine-2,4(1H,3H)-dione], the IC50 in experiment [1] is above 5000 nM. Also, the figures for the DC50 in experiment [2] and in experiment [3] were above 100 nM and 1 to 10 nM, respectively. Moreover, the maximal degradation (Dmax) in experiment [2] and in experiment [3] (maximal ER degradation) was below 25% throughout.
As for `O=C1CCC(Nc2ccc(N3CCN(CC4CC5(CCN(c6ccc([C@@H]7c8ccc(O)cc8OC[C@@H]7c7ccccc7)cc6)CC5)C4)CC3)c(F)c2)C(=O)N1` (stereo partly drawn) [Compound A52, 3-((3-fluoro-4-(4-((7-(4-((3S,4R)-7-hydroxy-3-phenylchroman-4-yl)phenyl)-7-azaspiro[3.5]nonan-2-yl)methyl)piperazin-1-yl)phenyl)amino)piperidine-2,6-dione], in experiment [1], the half-inhibitory concentration (IC50) was 50 to 500 nM. The values for the DC50 in experiment [2] and in experiment [3] were above 100 nM and below 1 nM, respectively. Also, the Dmax in experiment [2] was below 25%; in experiment [3] (maximal ER degradation), 25 to 50%.
Consider `O=C1CCC(N2Cc3c(ccc4c3OC[C@H]3CN(CC5CCN(c6ccc([C@@H]7c8ccc(O)cc8OC[C@@H]7c7ccccc7)cn6)CC5)CCN43)C2=O)C(=O)N1` (single isomer, unassigned) [Compound A69], for which the half-inhibitory concentration (IC50) in experiment [1] is 50 to 500 nM. Besides, the half-maximal degradation concentration (DC50) in experiment [2] and in experiment [3] was 1 to 10 nM throughout. The Dmax in experiment [2] was below 25%; in experiment [3] (maximal ER degradation), 25 to 50%.
As to `O=C1CC[C@@H](Nc2ccc(C3CCN(C[C@H]4COC5(CCN(c6ccc([C@H]7c8ccc(O)cc8OC[C@H]7c7ccccc7)cc6)CC5)C4)CC3)c(F)c2)C(=O)N1` (single isomer, unassigned) [Compound A164], the IC50 in experiment [1] was below 50 nM. Further, the results for the DC50 in experiment [2] and in experiment [3] were below 1 nM and 1 to 10 nM, respectively. For the same compound, the Dmax in experiment [2] lay within 25 to 50%; in experiment [3] (maximal ER degradation), 50 to 75%.
Consider `COc1cc(N2CCC(CN3CCN4c5ccc(C(=O)NC6CCC(=O)NC6=O)nc5OC[C@H]4C3)CC2)ccc1C1c2ccc(O)cc2OCC1c1ccccc1` (stereo in doubt) [Compound A134, (4aR)—N-(2,6-dioxopiperidin-3-yl)-3-((1-(4-((3R,4S)-7-hydroxy-3-phenylchroman-4-yl)-3-methoxyphenyl)piperidin-4-yl)methyl)-1,2,3,4,4a, 5-hexahydropyrazino[1,2-d]pyrido[2,3-b][1,4]oxazine-8-carboxamide], for which, in experiment [1], the IC50 fell in the range of 500 to 5000 nM. The DC50 in experiment [2] and in experiment [3] was below 1 nM throughout. Besides, the greatest degradation seen (Dmax) in experiment [2] and in experiment [3] (maximal ER degradation) was at least 75% each time.
For `O=C1CCC(NC(=O)c2ccc(N3CCC(CN4CCN(c5ccc([C@H]6c7ccc(O)cc7OC[C@H]6c6ccccc6)cc5)CC4)CC3)cn2)C(=O)N1` (stereo partly drawn) [Compound A129, N-(2,6-dioxopiperidin-3-yl)-5-(4-((4-(4-((3R,4S)-7-hydroxy-3-phenylchroman-4-yl)phenyl)piperazin-1-yl)methyl)piperidin-1-yl)picolinamide], the half-maximal inhibitory concentration (IC50) in experiment [1] is above 5000 nM. In experiment [2], the DC50 fell in the range of 10 to 100 nM and the “MCF7 Dmax %” value was “C (“C”: 25%-50%)”. The 50% degradation concentration (DC50) in experiment [3] lay in the range of 10 to 100 nM. Besides, the “T47D Dmax %” value in experiment [3] (maximal ER degradation) is “B (“B”: >50% and <75%)”.
As for `COC[C@H](C(=O)N1Cc2cc3c(cc2C1)C(=O)N(C1CCC(=O)NC1=O)C3)N1CCC2(CCN(c3ccc([C@@H]4c5ccc(O)cc5OC[C@@H]4c4ccccc4)cc3)CC2)CC1` (single isomer, unassigned) [Compound A60], the IC50 in experiment [1] fell in the range of 50 to 500 nM. Also, the results for the 50% degradation concentration (DC50) in experiment [2] and in experiment [3] were below 1 nM and 1 to 10 nM, respectively. The greatest degradation seen (Dmax) in experiment [2] was 25 to 50%; in experiment [3] (maximal ER degradation), below 25%.
Consider `O=C1CC[C@@H](Nc2ccc(C3CCN(C[C@H]4COC5(CCN(c6ccc([C@@H]7c8ccc(O)cc8OC[C@@H]7c7ccccc7)cc6)CC5)C4)CC3)c(F)c2)C(=O)N1` (single isomer, unassigned) [Compound A163], for which the IC50 in experiment [1] was 50 to 500 nM. Further, the half-maximal degradation concentration (DC50) in experiment [2] and in experiment [3] was below 1 nM throughout. Besides, the values for the Dmax in experiment [2] and in experiment [3] (maximal ER degradation) were 25 to 50% and 50 to 75%, respectively.
With `COc1nc(C(=O)NC2CCC(=O)NC2=O)ccc1N1CCN(CC2CCC3(CC2)CN(c2ccc([C@@H]4c5ccc(O)cc5OC[C@@H]4c4ccccc4)cc2)C3)CC1` (single isomer, unassigned) [Compound A108], in experiment [1], the IC50 is 500 to 5000 nM. The DC50 in experiment [2] was 1 to 10 nM; in experiment [3] it was below 1 nM. Moreover, the Dmax was 50 to 75% in experiment [2]; at least 75% in experiment [3] (maximal ER degradation); 76.3% in experiment [3] (maximal ER degradation, given as number).
Turning to `O=C1CCC(N2C(=O)c3cc4c(cc3C2=O)CN(C(=O)CN2CCC3(CC2)CCN(c2ccc([C@H]5c6ccc(O)cc6OC[C@H]5c5ccccc5)cc2)CC3)C4)C(=O)N1` (single isomer, unassigned) [Compound A54, formate], the IC50 in experiment [1] was in the range of 500 to 5000 nM. For the same compound, the DC50 in experiment [2] was in the range of 10 to 100 nM; in experiment [3] it was 1 to 10 nM. Further, the greatest degradation seen (Dmax) in experiment [2] was 25 to 50%; in experiment [3] (maximal ER degradation), at least 75%.
With `COc1cccc([C@H]2COc3cc(O)ccc3[C@H]2c2ccc(N3CCC(CN4CCN5c6ccc7c(c6OC[C@H]5C4)CN(C4CCC(=O)NC4=O)C7=O)CC3)cc2)c1` (single isomer, unassigned) [Compound A33], the concentration for half-maximal inhibition (IC50) in experiment [1] was below 50 nM. In addition, the DC50 in experiment [2] and in experiment [3] was 1 to 10 nM in each case.
Regarding `COc1cc(N2CCC(CN3CCN(c4cnc(C(=O)NC5CCC(=O)NC5=O)cc4OC)CC3)CC2)ccc1[C@H]1c2ccc(O)cc2OC[C@H]1c1ccccc1` (single isomer, unassigned) [Compound A127], the 50% inhibitory concentration (IC50) in experiment [1] is above 5000 nM. Besides, the half-maximal degradation concentration (DC50) in experiment [2] and in experiment [3] was below 1 nM each time. Besides, the values for the Dmax in experiment [2] and in experiment [3] (maximal ER degradation) were 50 to 75% and 25 to 50%, respectively.
